Patent publication US4753881A, “Purified enzyme and process therefor” (Eli Lilly and Company, priority 1986, dated 1988)

Experiments:
[1] = target: T1, deacetoxycephalosporin C synthetase (expandase) (Hapsidospora chrysogena, UniProt P11935); test: Enzyme activity assay (HPLC): expandase-catalyzed reaction, DAOC plus DAC from penicillin N; type: biochemical, Cephalosporium acremonium; details: for Maximal reactivation/stimulation of expandase activity, initial to final activity: DTT 1.0 mM, ascorbate 0.25 mM, ATP 0.05 mM, purified enzyme (step 3); for Effect on expandase function of the purified enzyme: present in the incubation mixture
T1 construct: prepared by sonicating fresh cell suspensions of Cephalosporium acremonium in buffer at pH 7-8; endogenous in cells; host or cells: Cephalosporium acremonium cells (crude cell extract, then chromatographic purification)
T1 sequence (P11935 1-332): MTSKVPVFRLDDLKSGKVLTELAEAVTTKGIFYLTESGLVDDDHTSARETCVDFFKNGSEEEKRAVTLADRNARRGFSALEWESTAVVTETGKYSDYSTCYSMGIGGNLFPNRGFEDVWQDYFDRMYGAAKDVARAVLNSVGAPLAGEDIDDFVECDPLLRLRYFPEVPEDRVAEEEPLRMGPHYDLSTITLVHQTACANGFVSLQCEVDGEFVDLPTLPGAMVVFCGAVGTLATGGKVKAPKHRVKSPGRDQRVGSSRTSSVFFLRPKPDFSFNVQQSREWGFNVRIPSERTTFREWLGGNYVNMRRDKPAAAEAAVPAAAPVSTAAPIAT
From the text: (§1) The activity of the enzyme, which is a reflection of its purity, is expressed herein in units (U) of activity. One unit of expandase activity is defined as the amount of the enzyme required to cause formation of 1 μmole of DAOC plus DAC per minute from penicillin N. One unit of hydroxylase activity is defined as the amount of enzyme required to cause formation of 1 μmole of DAC per minute from DAOC.
(§2) The purity of the enzyme and the extent of purification during the course of the process can be measured by determining the expandase and hydroxylase activities of the chromatographic fractions via high performance liquid chromatography (HPLC) and by analyzing protein bands of chromatographic fractions via SDS-PAGE. The expandase-catalyzed reaction is conducted for 15 minutes at 30° C. with 0.28 mM penicillin N, 0.60 mM α-ketoglutarate (αKG), 0.06 mM ferrous sulfate, […], 1.00 mM dithiothreitol, 0.05 mM ATP and 0.0003-0.003 units of the enzyme in 1 ml of 50 mM Tris-HCl, pH 7.5. The hydroxylase-catalyzedreaction is conducted at 36° C. in the same medium with deacetoxycephalosporin C at a concentration of 0.05 mM instead of penicillin N.
(§3) The enzymatic reactions were interrupted by the addition of 1 ml of ethyl alcohol. The precipitate is separated by centrifugation at 4,000×g for 5 minutes and the supernatant containing the enzyme reaction products assayed by HPLC as follows. The expandase activity is determined by monitoring formation of both DAOC and DAC from penicillin N because of the apparent bifunctionality of the enzyme. The hydroxylase activity is determined by monitoring the formation of DAC from DAOC.
(§4) Aliquots (20 to 100 μl ) of the supernatant solutions are assayed for DAOC and DAC by HPLC using external standards.
(§5) A preferred HPLC system comprises the components: Model 721 system controller, Model 730 data module, Model 510EF pumps, Model 710B Waters Intelligent Sample Processor and a Lambda-Max Model 481 LC spectrophotometer (Waters Assoc., Milford, Mass.). DAC and DAOC are preferably separated by a radially packed compressed μBondapak-NH4column (0.8×10 cm) (Waters Assoc.) with a mobile phase of 2% acetic acid-0-4% methyl alcohol-6-7% acetonitrile-87-92% water; pH 3.8, a flow rate of 1.5-2.0 ml/min. and detection at 260 nm (cephalosporin chromophore). The assays are reproducible with 2% deviations for duplicate analyses of both the expandase and the hydroxylase catalyzed reactions.
For expandase assays, quantitation for DAC (in addition to that of DAOC) is corrected for penicillin N due to their coelution.

[2] = target: T2, hydroxylase activity of the expandase-hydroxylase enzyme (Hapsidospora chrysogena, UniProt P11935); test: Enzyme activity assay (HPLC): hydroxylase-catalyzed reaction, DAC from DAOC; type: biochemical, Cephalosporium acremonium; details: for Maximal reactivation/stimulation of hydroxylase activity, initial to final activity: DTT 1.0 mM, ascorbate 0.25 mM, ATP 0.05 mM, purified enzyme (step 3); for Effect on hydroxylase function of the purified enzyme: present in the incubation mixture
T2 construct: prepared by sonicating fresh cell suspensions of Cephalosporium acremonium in buffer at pH 7-8; endogenous in cells; host or cells: Cephalosporium acremonium cells (crude cell extract, then chromatographic purification)
T2 sequence (P11935 1-332): T1 sequence (P11935 1-332)
From the text: as §1, §2, §3, §4
as §5, with “reactions. […]” for “reactions.”

| Reactivation of hydroxylase activity [2] | Maximal reactivation/stimulation of hydroxylase activity, initial to final activity [2] | Effect on hydroxylase function of the purified enzyme [2] | SMILES | Reactivation of expandase activity [1] | Maximal reactivation/stimulation of expandase activity, initial to final activity [1] | Effect on expandase function of the purified enzyme [1] |
| --- | --- | --- | --- | --- | --- | --- |
| reversibly reactivated | 0 to 0.23 U × 10^-3 | stimulated | O[C@H](CS)[C@H](O)CS (racemic) [DTT, dithiothreitol] | reversibly reactivated | 0 to 50 U × 10^-3 | stimulated |
|  |  | inhibited | [Zn+2] [zinc ion] |  |  | inhibited |

The next lines start with the molecule.

| SMILES | Reactivation of hydroxylase activity [2] | Maximal reactivation/stimulation of hydroxylase activity, initial to final activity [2] | Effect on hydroxylase function of the purified enzyme [2] | Reactivation of expandase activity [1] | Maximal reactivation/stimulation of expandase activity, initial to final activity [1] | Effect on expandase function of the purified enzyme [1] |
| --- | --- | --- | --- | --- | --- | --- |
| O=C(O)c1cc(SSc2ccc([N+](=O)[O-])c(C(=O)O)c2)ccc1[N+](=O)[O-] [5,5'-dithiobis-2-nitrobenzoic acid] |  |  | inhibited |  |  | inhibited |
| Nc1ncnc2c1ncn2[C@@H]1O[C@H](COP(=O)(O)OP(=O)(O)OP(=O)(O)O)[C@@H](O)[C@H]1O [ATP] |  | 0.57 to 0.61 U × 10^-3 | stimulated |  | 38 to 52 U × 10^-3 | stimulated |
| O=C1O[C@H]([C@@H](O)CO)C(O)=C1O [Ascorbate] | reversibly reactivated | 0 to 0.81 U × 10^-3 | stimulated | reversibly reactivated | 0 to 90 U × 10^-3 | stimulated |
